pIC50: −log10 of the molar value.

The target in data set [1] is SHP-1 (Homo sapiens, UniProt P29350). Conditions: cited from earlier work.
Data set [2] concerns RAW 264.7 cells. Nature of the data set: Cell proliferation assay (modified MTT). Format: cell-based, murine. The procedure:
Cell Proliferation Assay. A modified MTT (3-[4,5-dimethyl-thiazol-2-yl]-2,5-diphenyltetrazolium bromide) assay was performed to analyze macrophage proliferation. RAW 264.7 cells were plated at 25,000 cells/well in a 96-well plate grown overnight at 37°C., and serum-starved for the next 24 hrs. Cells were stimulated with 10% FBS for 24 hrs with SWNTs (4 nM), SWNT-TPI (TPI: 25 nM and 50 nM), or TPI (25 nM), and then incubated with 10 μL of MTT AB solution (Millipore, Billerica) for 2 hr. 100 μL of acidic isopropanol (0.04N HCl) was added to each well and the absorbance was measured at 570 nm (reference wavelength 650 nm) on an ELISA plate reader a SpectraMax 190 Microplate Reader (Molecular Devices). Statistical analysis Statistical differences were determined by one-way ANOVA, and results were expressed as means±SE. p-value<0.05 and p-value<0.01 were considered to indicate statistical significance. Statistical analyses were performed using GraphPad Prism 7 (GraphPad Inc.).

Data set [3] is described as follows: TPI release assay. Format: physicochemical. Conditions: PBS pH 5.5 and 6.5, carbonate buffer pH 9, through day 7. The procedure:
TPI release Assay. We conducted assays to evaluate TPI release from SWNTs in carbonate buffer (pH 9) and PBS buffer (pH 6.5 and 5.5). SWNT-TPI (200 μL, 16.5 TPI molecules/SWNT on average) was added to MINI Dialysis Devices (MWCO: 20K) and the volume of release medium was 3 mL. At fixed timepoints from 1 day to 7 days, 2 μL of the outlet medium was removed to test the rate of TPI release. The cumulative drug release (CDR) percentage was calculated by the following equation: CDR (%)=Wreleased/Wloaded×100% Here, CDR represents the cumulative drug release percentage, Wreleased represents the mass of released TPI in the release media, Wloaded represents the total mass of TPI. TPI release in serum (20% Fetal Bovine Serum (FBS) in Phosphate-buffered saline (PBS)): the timepoints, sample volume, and calculation methods were identical to the above.

Chain of SHP-1 (P29350 whole entry): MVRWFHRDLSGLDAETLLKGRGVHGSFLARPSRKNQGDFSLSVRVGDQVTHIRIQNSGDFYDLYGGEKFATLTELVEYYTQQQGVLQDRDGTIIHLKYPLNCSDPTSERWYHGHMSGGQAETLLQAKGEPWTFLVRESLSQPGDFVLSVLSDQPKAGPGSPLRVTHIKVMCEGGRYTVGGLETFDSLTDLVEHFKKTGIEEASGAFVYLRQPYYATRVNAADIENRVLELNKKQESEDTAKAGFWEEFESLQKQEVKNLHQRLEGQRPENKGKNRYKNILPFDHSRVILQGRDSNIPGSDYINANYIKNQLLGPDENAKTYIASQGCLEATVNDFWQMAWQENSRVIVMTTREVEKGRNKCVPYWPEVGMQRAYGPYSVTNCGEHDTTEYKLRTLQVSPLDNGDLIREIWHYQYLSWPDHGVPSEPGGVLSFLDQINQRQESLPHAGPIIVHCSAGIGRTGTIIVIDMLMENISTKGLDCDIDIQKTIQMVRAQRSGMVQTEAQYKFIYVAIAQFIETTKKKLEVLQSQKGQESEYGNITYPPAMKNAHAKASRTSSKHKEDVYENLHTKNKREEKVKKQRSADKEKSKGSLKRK

By pIC50 is commonly meant the negative decadic logarithm of the IC50, by convention in mol/L. In the case of `O=C1C=CC(=O)C(c2cc(Cl)ccc2Cl)=C1` [TPI, 2-(2,5-dichlorophenyl)-2,5-cyclohexadiene-1,4-dione], in data set [1], the pIC50 is 7.40 and the “selectivity for SHP-1 over SHP-2” value was “selective toward SHP-1”. Besides, the “effectiveness as SHP-1 inhibitor relative to sodium stibogluconate” value in data set [1] (versus sodium stibogluconate) is on record as “over two orders of magnitude”. For the same compound, the RAW cell proliferation entry in data set [2] is reported as “no significant effect”. In addition, the “TPI release from SWNTs in saline buffers” value in data set [3] is given as “accelerated by progressively more acidic conditions”.
With `O=S(=O)(O)c1ccc2cc(N=Nc3cc(S(=O)(=O)O)c4cccnc4c3O)ccc2c1` [NSC87877], the negative logarithm of the IC50 (pIC50) in data set [1] was 6.45.

The record behind these values is patent US20220151921A1, “MONOCYTE-SELECTIVE DRUG DELIVERY SYSTEM USING SINGLE-WALLED CARBON NANOTUBES TO INDUCE EFFEROCYTOSIS” (The Board of Trustees of the Leland Stanford Junior …, priority 2019, published 2022).
